Laboratory results published in patent US6875768B1, “Phthalamide derivatives, intermediates in the production thereof, and agricultural/horticultural insecticides and method for using the same” (Nihon Nohyako Co., Ltd., priority 1999, dated 2005).

Legend:
[1] = system: diamond back moth (Plutella xylostella); assay type: in vivo; conditions: 1,000 ppm; Chinese cabbage seedling with eggs immersed about 30 seconds; counted six days after the immersion; 25° C.
Source text: Insecticidal effect on diamond back moth (Plutella xylostella)
Adult diamond back moths were released and allowed to oviposit on a Chinese cabbage seedling. […] Six days after the immersion, the hatched insects were counted. […] [formula] Criterion • A - - - Mortality 100% • B - - - Mortality 99-90% • C - - - Mortality 89-80% • D - - - Mortality 79-50%

[2] = system: Common cutworm (Spodoptera litura); assay type: in vivo; conditions: 500 ppm; cabbage leaf immersed about 30 seconds; second-instar larvae; eight days after the inoculation; 25° C.
Source text: Insecticidal Effect on Common cutworm (Spodoptera litura)

[3] = system: rice leafroller (Cnaphalocrosis medinalis); conditions: 500 ppm; rice lamina immersed about 30 seconds; third-instar larvae; four days after the inoculation; 25° C., humidity 70%
Protocol: Insecticidal effect on rice leafroller (Cnaphalocrosis medinalis)
After air-dryness, the lamina was placed in a plastic Petri dish with a diameter of 9 cm whose bottom had been covered with a wetted filter paper. The lamina was inoculated with third-instar larvae of rice leafroller, after which the dish was allowed to stand in a room thermostatted at 25° C. and having a humidity of 70%. Four days after the inoculation, the dead and alive were counted and the insecticidal effect was judged according to the criterion shown in Test Example 1. The test was carried out with triplicate groups of 10 insects.

Measured: insecticidal effect (activity ranking by mortality)

CC(C)NC(=O)c1ccccc1C(=O)Nc1ncc(C(F)(F)F)cc1Cl [Q26-1]
B or higher: all assays above

CCN(CC)C(=O)c1c(I)cccc1C(=O)Nc1ncc(C(F)(F)C(F)(F)F)cc1C [Q26-29]
B or higher: all assays above

CCN(CC)C(=O)c1c(I)cccc1C(=O)Nc1ncc(C(F)(F)C(F)(F)C(F)(F)F)cc1C [Q26-30]
B or higher: all assays above

CCN(CC)C(=O)c1c(I)cccc1C(=O)Nc1ncc(C(F)(C(F)(F)F)C(F)(F)F)cc1C [Q26-31]
B or higher: all assays above

CCN(CC)C(=O)c1c(I)cccc1C(=O)Nc1ccc(Cl)cn1 [Q26-32]
B or higher: all assays above

CCN(CC)C(=O)c1c(I)cccc1C(=O)Nc1ccc(Br)cn1 [Q26-33]
B or higher: all assays above

CC(C)NC(=O)c1c(Cl)cccc1C(=O)Nc1ccc(Oc2ccc(Br)cc2)nc1 [Q27-29]
B or higher: all assays above

CC(C)NC(=O)c1c(Cl)cccc1C(=O)Nc1ccc(Oc2ccc(Cl)cc2Cl)nc1 [Q27-30]
B or higher: all assays above

CC(C)NC(=O)c1c(Cl)cccc1C(=O)Nc1cnccc1SC(C)C [Q27-31]
B or higher: all assays above

CC(C)CSc1ccncc1NC(=O)c1cccc(Cl)c1C(=O)NC(C)C [Q27-32]
B or higher: all assays above

Cc1cc(Cl)ncc1NC(=O)c1cccc(Cl)c1C(=O)NC(C)C [Q27-81]
B or higher: all assays above

Cc1cc(Oc2ccc(Br)cc2)ncc1NC(=O)c1cccc(Cl)c1C(=O)NC(C)C [Q27-98]
B or higher: all assays above

CC(C)NC(=O)c1cccc(Cl)c1C(=O)Nc1ccc(Oc2ccc(Br)cc2)nc1 [Q27-124]
B or higher: all assays above

CC(C)NC(=O)c1cccc(Cl)c1C(=O)Nc1ccc(Oc2ccc(Cl)cc2Cl)nc1 [Q27-125]
B or higher: all assays above

CC(C)NC(=O)c1cccc(Cl)c1C(=O)Nc1ccc(SC(C)C)nc1 [Q27-126]
B or higher: all assays above

CC(C)CSc1ccc(NC(=O)c2c(Cl)cccc2C(=O)NC(C)C)cn1 [Q27-127]
B or higher: all assays above

Cc1cc(Cl)ncc1NC(=O)c1c(Cl)cccc1C(=O)NC(C)C [Q27-128]
B or higher: all assays above

CCN(CC)C(=O)c1c(I)cccc1C(=O)Nc1ccc(C(F)(F)C(F)(F)C(F)(F)F)nc1Cl [Q27-129]
B or higher: all assays above

CCN(CC)C(=O)c1c(I)cccc1C(=O)Nc1ccc(Cl)nc1 [Q27-130]
B or higher: all assays above

CCN(CC)C(=O)c1c(I)cccc1C(=O)Nc1ccc(C(F)(F)C(F)(F)C(F)(F)F)nc1 [Q27-131]
B or higher: all assays above

CCN(CC)C(=O)c1c(I)cccc1C(=O)Nc1ccc(Oc2ccc(Br)cc2)nc1 [Q27-132]
B or higher: all assays above

CC(C)NC(=O)c1c(I)cccc1C(=O)Nc1ccc(Cl)nc1 [Q27-133]
B or higher: all assays above

CC(C)NC(=O)c1c(I)cccc1C(=O)Nc1ccc(C(F)(F)C(F)(F)F)nc1 [Q27-134]
B or higher: all assays above

CC(C)NC(=O)c1c(I)cccc1C(=O)Nc1ccc(C(F)(F)C(F)(F)C(F)(F)F)nc1 [Q27-135]
B or higher: all assays above

CC(C)NC(=O)c1c(I)cccc1C(=O)Nc1ccc(C(F)(C(F)(F)F)C(F)(F)F)nc1 [Q27-136]
B or higher: all assays above

Cc1cc(C(F)(C(F)(F)F)C(F)(F)F)ncc1NC(=O)c1cccc(I)c1C(=O)NC(C)C [Q27-137]
B or higher: all assays above

Cc1nc(C(F)(C(F)(F)F)C(F)(F)F)ccc1NC(=O)c1cccc(I)c1C(=O)NC(C)C [Q27-138]
B or higher: all assays above

CC(C)(C)NC(=O)c1c(I)cccc1C(=O)Nc1ccc(C(F)(C(F)(F)F)C(F)(F)F)nc1 [Q27-139]
B or higher: all assays above

CC(C)(C)NC(=O)c1c(I)cccc1C(=O)Nc1ccc(C(F)(F)C(F)(F)F)nc1 [Q27-140]
B or higher: all assays above

CC(C)(C)NC(=O)c1c(I)cccc1C(=O)Nc1ccc(C(F)(F)C(F)(F)C(F)(F)F)nc1 [Q27-141]
B or higher: all assays above

Cc1cc(C(F)(C(F)(F)F)C(F)(F)F)ncc1NC(=O)c1cccc(I)c1C(=O)NC(C)(C)C [Q27-142]
B or higher: all assays above
